Assay results: patent US4438044A, “Di-L-cysteine L-malate and process for the production thereof” (priority 1980, dated 1984)
Values after ≈ are worked out from the molar mass of the structure shown.

Experiments:
Solubility in water = format: physicochemical; conditions: 10° C.
[1] = format: physicochemical
Protocol: The storage stability of the above crystalline product and L-cysteine hydrochloride anhydride is measured by keeping them at 40° C. The results are shown in the accompanying FIG. 3.

solubility (Solubility in water): 222 mg/mL (≈ 1830 mM)
stability in the crystalline form [1]: extremely stable
storage stability [1]: excellent stability
SMILES: N[C@@H](CS)C(=O)O [di-L-cysteine L-malate]
